In patent US9504697B2, “Progesterone treatment for improving sleep quality” (BESINS Healthcare Luxembourg SARL, priority 2011, dated 2016):

Key:
post-menopausal women = post-menopausal women administered 300 mg progesterone; cited from earlier work
postmenopausal women [1] = assay: Hormone levels (GH, IGF-I, TSH, free T4) from 24 hour blood sampling in the placebo-controlled study; assay type: in vivo, human
Protocol: Each study included an initial 20 day ambulatory period. During this period, the subjects were asked to maintain regular sleep-wake cycles (bedtime 2300-0700 h in darkness) and meal schedules (0800 h, 1230 h, 1900 h). They took daily, at 2300 h, a capsule of either 300 mg of progesterone or placebo.
At the end of the ambulatory period, they were admitted at about 1600 h to the sleep laboratory for 44 hours. During hospitalization, subjects were maintained in a seated/upright position in normal indoor light conditions (+/−300 lux), and no naps were allowed during the scheduled wake periods (0700-2300 h). Meals were served at 0800 h, 1230 h, and 1900 h. At 2300 h, they received their usual capsule of either 300 mg of progesterone or placebo. During both scheduled sleep periods (2300-0700 h), subjects were kept recumbent in total darkness and sleep was polygraphically recorded.
On the morning after the first night, a sterile heparin-lock catheter was inserted intravenously in the forearm and blood samples were collected for 24 hours at 15-minute intervals. The iv line was kept permeable by a slow drip of heparinized saline. During the sleep period, the indwelling catheter was connected to plastic tubing extending to an adjacent room and blood samples were collected remotely, as previously described (Leproult et al., 2005, Clin. Endocrinol. 63: 298-304). The total amount of blood withdrawn was less than 300 ml for each inpatient study. The subjects were discharged at about 1200 h after the second night.
Nonparametric tests (Friedman test, Wilcoxon signed rank test, Spearman rank test) were used for statistical calculations (StatView SE+ software for Macintosh computers, Abacus Concepts Inc., Berkeley, Calif.). Detection of outliers was performed by the Grubbs test (Grubbs, 1969, Technometrics 11:1-21; Grubbs and Beck, 1972, Technometrics 14:847-854). All group values are expressed as the mean+/−SEM.
Levels of growth hormone (GH) and thyroid-stimulating hormone (TSH) also were assessed.

men = men orally administered 300 mg progesterone; cited from earlier work
postmenopausal women [2] = assay: Polygraphic sleep recordings in randomized, double-blind, placebo-controlled study, prevention of sleep disturbances; assay type: in vivo, human
Protocol: Eight postmenopausal women, aged 48-74 yr (mean 57.4 yr), were selected after a careful clinical and biological evaluation. Investigations were performed 2-17 years (mean: 8.0 years) after natural menopause (seven subjects) or bilateral ovariectomy (one subject). Mean age at menopause was 49.4 years (range: 41-57 yr). Three subjects had never received hormone replacement therapy, and five subjects had been off such treatment for 2-6 months (mean: 4.4 months) at the time of enrollment. Body weight was in the normal range for all (mean+/-SEM of body mass index 22.1+/-0.8 kg/m2). In all subjects, estradiol plasma levels were <10 ng/liter. FSH plasma levels averaged 90 IU/liter (range: 66-136 IU/liter). The protocol was designed as a randomized, double-blind, placebo-controlled study. Thereafter, all subjects participated in random order in two studies (referred to as placebo and progesterone), separated from each other by at least 1 month. The placebo study preceded the progesterone study in four subjects and followed the progesterone study in the other four volunteers. Each study included an initial 20 day ambulatory period. During this period, the subjects were asked to maintain regular sleep-wake cycles (bedtime 2300-0700 h in darkness) and meal schedules (0800 h, 1230 h, 1900 h). They took daily, at 2300 h, a capsule of either 300 mg of progesterone or placebo. At the end of the ambulatory period, they were admitted at about 1600 h to the sleep laboratory for 44 hours. During hospitalization, subjects were maintained in a seated/upright position in normal indoor light conditions (+/-300 lux), and no naps were allowed during the scheduled wake periods (0700-2300 h). Meals were served at 0800 h, 1230 h, and 1900 h. At 2300 h, they received their usual capsule of either 300 mg of progesterone or placebo. During both scheduled sleep periods (2300-0700 h), subjects were kept recumbent in total darkness and sleep was polygraphically recorded. On the morning after the first night, a sterile heparin-lock catheter was inserted intravenously in the forearm and blood samples were collected for 24 hours at 15-minute intervals. The iv line was kept permeable by a slow drip of heparinized saline. During the sleep period, the indwelling catheter was connected to plastic tubing extending to an adjacent room and blood samples were collected remotely, as previously described (Leproult et al., 2005, Clin. Endocrinol. 63: 298-304). The total amount of blood withdrawn was less than 300 ml for each inpatient study. The subjects were discharged at about 1200 h after the second night. Polygraphic sleep recordings were visually scored at 30 second intervals, using standardized criteria ([…] and Kales, 1968, Los Angeles: UCLA Brain Information Service/Brain Research Institute) by the same experienced scorer who was blind to the clinical condition of the subject. Sleep onset and morning awakening were defined as, respectively, the times of the first and last 30 second intervals scored II, III, IV, or rapid eye movement (REM). The sleep period was defined as the time interval separating sleep onset and final awakening. Total sleep time was defined as the sleep period minus the total duration of wake after sleep onset (WASO). Sleep latency was defined as the time interval from lights off until sleep onset. Sleep efficiency was calculated as the total sleep time, expressed as percentage of the time allocated to sleep. Slow-wave sleep (SWS) was defined as stages III+IV. A spectral analysis was performed on the central electroencephalogram lead (PRANA, PhiTools, Strasbourg, France) (Latta et al., 2005, Sleep 28: 1525-1534). Muscular, ocular, and movement artifacts were eliminated before spectral analysis. Delta activity was calculated as the absolute spectral power in the frequency band 0.5-4 Hz. Mean delta power was calculated per 30-sec epoch. Delta power in non-REM sleep quantifies slow-wave activity (SWA) (i.e., the intensity of SWS). […]

[3] = night 2 (with catheter), P=0.04

## CC(=O)[C@H]1CC[C@H]2[C@@H]3CCC4=CC(=O)CC[C@]4(C)[C@H]3CC[C@]12C [progesterone, pregn-4-ene-3,20-dione]
post-menopausal women
  intermittent time spent awake and REM sleep in the first third of the night: decrease of intermittent time spent awake and increase in REM sleep in the first third of the night
  total duration of REM, Stage 2 or SWS, absolute power spectra; baseline, placebo and progesterone: no significant differences
Postmenopausal women [1]; 0700-2300 h, mean+/-SEM, similar under both conditions
  GH secretion over the scheduled wake period: 239 ± 91 µg
Postmenopausal women [1]; 2300-0100 period, P=0.05
  slope of the linear regression of TSH values over the 2300-0100 period: significant negative slope
Postmenopausal women [1]; 2300-0700 period, P=0.05 vs placebo
  TSH levels over the 2300-0700 period: 0.98+/−0.18 mU/l
Postmenopausal women [1]; 2300-0700 h, mean+/-SEM, P=0.05 vs placebo
  GH secretion over the scheduled sleep period: 154 ± 44 µg
Postmenopausal women [1]; 24 hour, P=0.07 vs placebo
  24 hour TSH levels: 0.91+/−0.13 mU/l
Postmenopausal women [1]; 24 hour, P=0.53 vs placebo
  24 hour free T4 levels: 10.3 ± 0.4 ng/L
Postmenopausal women [1]; measured on 2-3 morning plasma samples, P=0.09 vs placebo
  IGF-I levels: 103 ± 23 µg/L
men
  effect on sleep pattern: increase of stage N2 time and decrease of stage N3 time and of REM sleep
Postmenopausal women [2]; night 1 (without catheter), 300 mg daily at 2300 h, after 20 day ambulatory period
  sleep duration and architecture, placebo versus progesterone treatment: no differences
Postmenopausal women [2]; night 2 (with catheter)
  sleep latency, stage I, stage II, REM sleep, and REM latency, progesterone versus placebo: no differences
Postmenopausal women [2]; [3]
  sleep efficiency higher under progesterone compared with placebo: 15%
  total SWA higher under progesterone compared with placebo: more than 40%
  total sleep time higher under progesterone compared with placebo: 20%
Postmenopausal women [2]; night 2 (with catheter), P=0.05
  mean WASO duration lower under progesterone compared with placebo: more than 50%
Postmenopausal women [2]; night 2 (with catheter), all eight subjects, mean+/-SEM
  SWS duration: 84 ± 10 min
Postmenopausal women [2]; night 2 (with catheter), outlier excluded from the analysis, mean+/-SEM, P=0.04 vs placebo
  SWS duration, outlier excluded: 79 ± 10 min
Postmenopausal women [2]; under progesterone 300 mg daily, night 2 with iv catheter
  other sleep variables, night 2 compared with night 1: not significantly altered
Postmenopausal women [2]; under progesterone 300 mg daily, night 2 with iv catheter, P=0.04
  decrease in stage II, night 2 compared with night 1: about 20%
Postmenopausal women [2]; under progesterone 300 mg daily, night 2 with iv catheter, P=0.05
  decrease in total sleep time, night 2 compared with night 1: about 20%
Postmenopausal women [2]; under progesterone 300 mg daily, night 2 with iv catheter, P=0.07
  decrease in sleep efficiency, night 2 compared with night 1: about 20%
